Data as given in paper PMC4062819, “N-Demethylation and N-oxidation of imipramine in rat thoracic aortic endothelial cells” (In Vitro Cellular & Developmental Biology. Animal, 2014).

Assays:
[1] = test system: T1, FMO (flavin-containing monooxygenase); experiment: imipramine N-oxide formation in cell homogenate, HPLC-UV; type: biochemical, Rattus norvegicus; settings: NADPH-regenerating system, pH 7.4, 37 °C, apparent Km, FMO isoform unresolved
T1 construct: gene Fmo1; native, homogenate of cultured thoracic aortic endothelial cells; FMO isoform not resolved
From the text: imipramine N-oxide formation in cell homogenate, HPLC-UV on FMO (flavin-containing monooxygenase)

[2] = test system: CYP2C11 and CYP3A2; settings: read-out: K m (μmol/L); NADPH-regenerating system; pH 7.4; 37 °C; apparent Km; homogenate, mixed CYPs assigned by anti-CYP antibodies
From the text: desipramine (N-demethylate) formation in cell homogenate, HPLC-UV on CYP2C11 and CYP3A2

[3] = test system: T1, FMO (flavin-containing monooxygenase); experiment: inhibition of imipramine N-oxidation in cell homogenate, HPLC-UV; type: biochemical, Rattus norvegicus; settings: competitive with imipramine, methimazole 1 μmol/L, NADPH-regenerating system, 37 °C, FMO isoform unresolved, read-out: apparent K i

Row | SMILES | Km [1] | Km [2] | Ki [3]
1 | CN(C)CCCN1c2ccccc2CCc2ccccc21 [imipramine] | 20 ± 4.5 µM | 39.9 ± 5.3 µmol/L | –
2 | Cn1cc[nH]c1=S [methimazole] | – | – | 0.8 µM
